In brackets after ≈: the same amount, converted by molar mass. Activity calls are given as the source filed them. No cut-off for these calls is given here.
Experiments:
Cannabinoid receptor 1 [1] = target: T1, Cannabinoid receptor 1 (Homo sapiens, UniProt P21554); format: functional, cell-based, CHO-K1
Description: Antagonist activity at human CB1 receptor expressed in CHO-K1 cells assessed as inhibition of CP-55940-induced GTPgammaS binding

Cannabinoid receptor 1 [2] = target: T1, Cannabinoid receptor 1; assay: Inverse agonist activity at human CB1 receptor expressed in CHO-K1 cells by GTPgammaS binding assay; format: functional, cell-based
[3] = Lipophilicity, log D by chromatography; format: physicochemical
[4] = Solubility of the compound; format: physicochemical
Cannabinoid receptor 1 [5] = target: T1, Cannabinoid receptor 1; assay: Displacement of [3H]CP-55940 from human CB1 receptor expressed in CHO-K1 cells; format: cell-based
[6] = Oral bioavailability in rat; format: ADME, organism-based; conditions: in vivo
[7] = Stability in rat microsomes assessed as compound remaining after 30 mins; format: ADME, Microsome; conditions: read-out: Stability
[8] = Ratio of drug level in plasma to brain in mouse at 10 mg/kg, po after 6 hrs; format: ADME, organism-based; set-up: dose 10 mg/kg, route oral; conditions: in vivo
[9] = Oral bioavailability in mouse; format: ADME, organism-based; conditions: in vivo
[10] = Selectivity for human CB1 receptor over CB2 receptor by GTPgammaS binding assay
Mus musculus [11] = assay: Reduction in WIN-55212-induced hypothermia in mouse at 10 mg/kg po pretreated 40 mins prior to WIN-55212 challenge measured after 1 hr; format: functional, organism-based; set-up: dose 10 mg/kg
[12] = Ratio of drug level in plasma to brain in po dosed diet-induced obese mouse after 6 hrs; format: ADME, organism-based; conditions: in vivo
Mus musculus [13] = assay: Reduction in body weight in diet-induced obese mouse at 3 mg/kg, po; format: functional; set-up: scale not given: the % may be the effect or the level left
Mus musculus [14] = assay: Reduction in body weight in diet-induced obese mouse at 10 mg/kg, po; format: functional; set-up: scale not given: the % may be the effect or the level left
Cannabinoid receptor 1 [15] = target: T1, Cannabinoid receptor 1; assay: biochemical; format: cell-based, COS-7
Description: Displacement of [3H]CP-55940 from human CB1 receptor expressed in COS7 cells

Mus musculus [16] = assay: Reduction in WIN-55212-induced hypothermia in mouse at 1 mg/kg po pretreated 40 mins prior to WIN-55212 challenge measured after 1 hr; format: functional, organism-based; set-up: dose 1 mg/kg
[17] = Ratio of drug level in plasma to brain in rat at 5 mg/kg, po after 6 hrs; format: ADME, organism-based; set-up: dose 5 mg/kg, route oral; conditions: in vivo
[18] = Ratio of drug level in plasma to brain in mouse at 10 mg/kg, po after 3 hrs; format: ADME, organism-based; set-up: dose 10 mg/kg, route oral; conditions: in vivo
[19] = Stability in rat microsomes after 30 mins; format: ADME, Microsome; conditions: 0.5 h
[20] = Stability in mouse microsomes after 30 mins; format: ADME, Microsome; conditions: 0.5 h
[21] = Bioavailability in ip dosed rat; format: ADME, organism-based; conditions: in vivo
[22] = Ratio of drug level in plasma to brain in rat at 10 mg/kg, ip after 6 hrs; format: ADME, organism-based; set-up: dose 10 mg/kg, route intraperitoneal; conditions: in vivo

T1 sequence (P21554 whole entry): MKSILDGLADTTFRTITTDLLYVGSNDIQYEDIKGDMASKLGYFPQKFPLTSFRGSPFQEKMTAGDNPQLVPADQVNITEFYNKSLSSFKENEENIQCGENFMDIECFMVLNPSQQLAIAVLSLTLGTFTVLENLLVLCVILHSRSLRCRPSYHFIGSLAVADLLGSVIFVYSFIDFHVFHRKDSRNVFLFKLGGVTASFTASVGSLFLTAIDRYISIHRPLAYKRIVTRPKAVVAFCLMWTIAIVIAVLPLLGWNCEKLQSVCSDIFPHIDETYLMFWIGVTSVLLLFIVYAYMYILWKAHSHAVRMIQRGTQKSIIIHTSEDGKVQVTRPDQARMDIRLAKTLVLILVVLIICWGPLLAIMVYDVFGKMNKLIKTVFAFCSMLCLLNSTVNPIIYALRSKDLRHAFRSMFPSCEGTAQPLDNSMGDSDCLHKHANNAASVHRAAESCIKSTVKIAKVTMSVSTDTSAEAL

SMILES | IC50 (Cannabinoid receptor 1 [1]) [nM] | IC50 (Cannabinoid receptor 1 [2]) [nM] | chromatographic logD [3] | solubility ([4]; read-out: solubility) [µM] | IC50 (Cannabinoid receptor 1 [5]) [nM] | also measured
N=C(Cc1c(C(=O)N2CCC(c3ncccn3)CC2)nn(-c2ccccc2Cl)c1-c1ccc(Cl)cc1)NO | 21 | – | – | – | – | –
N#CC1(c2ccccc2)CCN(C(=O)c2nn(-c3ccccc3Cl)c(-c3ccc(Cl)cc3)c2CC(N)=O)CC1 | 0.23 | 0.11 | 3.4 | 9 (≈ 5.03 µg/mL) | 0.78 | –
NC(=O)Cc1c(C(=O)N2CCC(C(=O)O)(c3ccccn3)CC2)nn(-c2ccccc2Cl)c1-c1ccc(Cl)cc1 | 16 | 10 | 1.5 | 425 (≈ 246 µg/mL) | 23 | –
N#CN1CCC(CNC(=O)c2nn(-c3ccccc3Cl)c(-c3ccc(Cl)cc3)c2CC(N)=O)CC1 | 0.66 | 0.49 | 2.9 | 16 (≈ 8.18 µg/mL) | – | IC50 (Cannabinoid receptor 1 [15]): 0.34 nM
NC(=O)Cc1c(C(=O)NN2CCOCC2)nn(-c2ccccc2Cl)c1-c1ccc(Cl)cc1 | 7 | 1.7 | 1.8 | – | 7.9 | –
N=C(N)Cc1c(C(=O)N2CCC(O)(c3ccc(F)cc3)CC2)nn(-c2ccccc2Cl)c1-c1ccc(Cl)cc1 | 1.9 | – | – | – | – | –
N=C(N)Cc1c(C(=O)NCc2ccc(F)cc2)nn(-c2ccccc2Cl)c1-c1ccc(Cl)cc1 | 1.2 | 0.79 | – | – | – | –
NC(=O)Cc1c(C(=O)N2CCC(c3ccccc3F)CC2)nn(-c2ccccc2Cl)c1-c1ccc(Cl)cc1 | 0.51 | – | – | – | – | –
N=C(Cc1c(C(=O)NN2CCOCC2)nn(-c2ccccc2Cl)c1-c1ccc(Cl)cc1)NO | 51 | – | – | – | – | –
NC(=O)Cc1c(C(=O)N2CCC(O)(c3ccccc3)CC2)nn(-c2ccccc2Cl)c1-c1ccc(Cl)cc1 | 0.26 | 0.11 | 2.7 | 105 (≈ 57.7 µg/mL) | – | IC50 (Cannabinoid receptor 1 [15]): 2.9 nM
Cc1c(C(=O)NN2CCCCC2)nn(-c2ccc(Cl)cc2Cl)c1-c1ccc(Cl)cc1 [RIMONABANT] | – | – | – | – | – | solubility [4]: 10 µM (≈ 4.64 µg/mL); Activity (Mus musculus [16]): Active; Activity (Mus musculus [14]): 14.5
Cc1ccncc1NC(=O)c1nn(-c2ccccc2Cl)c(-c2ccc(Cl)cc2)c1CC(N)=O | 3 | 1.7 | 2.4 | 200 (≈ 96.1 µg/mL) | 0.55 | Ratio [17]: 1.2; bioavailability [6]: 39%; remaining at 0.5 h [7]: 63%
NC(=O)Cc1c(C(=O)NC2CCN(C(=O)C3CC3)CC2)nn(-c2ccccc2Cl)c1-c1ccc(Cl)cc1 | – | 1.2 | 2.3 | 80 (≈ 43.2 µg/mL) | 3.7 | Ratio [8]: 6.1
N=C(N)Cc1c(C(=O)NN2CCOCC2)nn(-c2ccccc2Cl)c1-c1ccc(Cl)cc1 | 26 | – | – | – | – | –

The next lines start with results.

IC50 (Cannabinoid receptor 1 [1]) [nM] | IC50 (Cannabinoid receptor 1 [2]) [nM] | chromatographic logD [3] | solubility ([4]; read-out: solubility) [µM] | IC50 (Cannabinoid receptor 1 [5]) [nM] | SMILES | also measured
– | 1.8 | – | – | – | N#CCc1c(C(=O)NN2CCCCC2)nn(-c2ccccc2Cl)c1-c1ccc(Cl)cc1 | –
0.93 | 0.4 | – | – | – | N=C(N)Cc1c(C(=O)NN2CCCCC2)nn(-c2ccccc2Cl)c1-c1ccc(Cl)cc1 | –
1.1 | – | – | – | – | N=C(Cc1c(C(=O)Nc2ccc(F)cc2)nn(-c2ccccc2Cl)c1-c1ccc(Cl)cc1)NO | –
1.4 | 0.82 | 2.6 | 4.5 (≈ 2.13 µg/mL) | 1.8 | NC(=O)Cc1c(C(=O)NN2CCCCC2)nn(-c2ccccc2Cl)c1-c1ccc(Cl)cc1 | bioavailability [6]: 2%; remaining at 0.5 h [7]: 72%
9.7 | 0.59 | – | – | – | N=C(N)Cc1c(C(=O)N2CCC(c3ncccn3)CC2)nn(-c2ccccc2Cl)c1-c1ccc(Cl)cc1 | –
0.19 | 0.1 | 2.8 | 75 (≈ 42.6 µg/mL) | 2.6 | NC(=O)Cc1c(C(=O)N2CCC(O)(c3ccc(F)cc3)CC2)nn(-c2ccccc2Cl)c1-c1ccc(Cl)cc1 | Ratio [8]: 10.2; bioavailability [6]: 70%; bioavailability [9]: 100%; Selectivity ratio [10]: 1000; Activity (Mus musculus [11]): inactive; Ratio [12]: 13; Activity (Mus musculus [13]): 5.6%; Activity (Mus musculus [14]): 15.1%
30 | – | 1.6 | 500 (≈ 298 µg/mL) | – | NC(=O)Cc1c(C(=O)N2CCC(C(=O)O)(c3ccc(F)cn3)CC2)nn(-c2ccccc2Cl)c1-c1ccc(Cl)cc1 | bioavailability [9]: 4%
3.8 | – | – | – | – | N#CCc1c(C(=O)N2CCC(c3ncccn3)CC2)nn(-c2ccccc2Cl)c1-c1ccc(Cl)cc1 | –
1.2 | 1.4 | 2.8 | – | 4.6 | N#Cc1ccc(N2CCN(C(=O)c3nn(-c4ccccc4Cl)c(-c4ccc(Cl)cc4)c3CC(N)=O)CC2)nc1 | –
0.71 | 0.3 | 2.6 | 1.1 (≈ 0.589 µg/mL) | 1.4 | NC(=O)Cc1c(C(=O)N2CCC(c3ncccn3)CC2)nn(-c2ccccc2Cl)c1-c1ccc(Cl)cc1 | –
3.6 | 2 | 2.3 | 400 (≈ 220 µg/mL) | 1.9 | NC(=O)Cc1c(C(=O)N2CCC(O)(c3ccccn3)CC2)nn(-c2ccccc2Cl)c1-c1ccc(Cl)cc1 | Ratio [8]: 10.2; Selectivity ratio [10]: 1000
1.8 | 1.3 | – | – | – | N=C(Cc1c(C(=O)NN2CCCCC2)nn(-c2ccccc2Cl)c1-c1ccc(Cl)cc1)NO | Ratio [18]: 1.2
– | 2.1 | 2.5 | 290 (≈ 165 µg/mL) | – | NC(=O)Cc1c(C(=O)N2CCC(O)(c3ccc(F)cn3)CC2)nn(-c2ccccc2Cl)c1-c1ccc(Cl)cc1 | IC50 (Cannabinoid receptor 1 [15]): 5.5 nM
1.5 | – | – | – | – | N=C(N)Cc1c(C(=O)Nc2ccc(F)cc2)nn(-c2ccccc2Cl)c1-c1ccc(Cl)cc1 | Stability [19]: Stable; Stability [20]: Stable; bioavailability [21]: 19%; Ratio [22]: 3.2
0.54 | – | – | – | – | N=C(Cc1c(C(=O)N2CCC(c3ccccc3F)CC2)nn(-c2ccccc2Cl)c1-c1ccc(Cl)cc1)NO | –
